A word on the IC50: it is the concentration needed to halve the response being measured.

The test deals with T1, recombinant human Myt1 (full length PKMYT1) (Homo sapiens, UniProt Q99640).
T1 sequence (Q99640 1-499): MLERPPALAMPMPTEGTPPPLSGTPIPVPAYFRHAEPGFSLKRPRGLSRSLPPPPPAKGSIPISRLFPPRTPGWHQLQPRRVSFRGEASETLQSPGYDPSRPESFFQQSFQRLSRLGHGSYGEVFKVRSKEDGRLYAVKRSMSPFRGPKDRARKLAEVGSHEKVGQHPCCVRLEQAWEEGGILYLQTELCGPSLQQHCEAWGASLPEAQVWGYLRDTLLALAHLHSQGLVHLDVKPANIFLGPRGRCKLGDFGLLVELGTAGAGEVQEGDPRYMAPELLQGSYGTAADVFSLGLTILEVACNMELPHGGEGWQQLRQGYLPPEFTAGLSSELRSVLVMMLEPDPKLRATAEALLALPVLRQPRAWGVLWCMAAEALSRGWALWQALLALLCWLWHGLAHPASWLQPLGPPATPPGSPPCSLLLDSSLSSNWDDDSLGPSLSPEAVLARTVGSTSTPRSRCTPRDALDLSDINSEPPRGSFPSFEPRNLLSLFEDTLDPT
The test can be described thus: ADP-Glo assay (Myt1 kinase activity). A general note: In ADP-Glo the light output rises with the ADP produced.
On to `Nc1c(-c2ccc(F)c3[nH]ncc23)c2ncc(-c3ccn[nH]3)cc2[nH]c1=O` [Example 9, 3-Amino-4-(7-fluoro-1H-indazol-4-yl)-7-(1H-pyrazol-5-yl)-1H-1,5-naphthyridin-2-one], for which the IC50 worked out at 16.1 nM.
Next, `Cc1cc2[nH]c(=O)c(N)c(-c3ccc(F)c4[nH]ncc34)c2nc1N1CCC(O)C1` (centres unmarked) [Example 24, 3-Amino-4-(7-fluoro-1H-indazol-4-yl)-6-(3-hydroxypyrrolidin-1-yl)-7-methyl-1H-1,5-naphthyridin-2-one]: 15.6 nM; `Nc1c(-c2cccc3[nH]ncc23)c2ncc(C3CC3)cc2[nH]c1=O` [Example 34, 3-Amino-7-cyclopropyl-4-(1H-indazol-4-yl)-1H-1,5-naphthyridin-2-one]: 19.3 nM.
The figure for `Cc1cc(C#CC2COC2)nc2c(-c3ccc(F)c4[nH]ncc34)c(N)c(=O)[nH]c12` [Example 150, 3-Amino-4-(7-fluoro-1H-indazol-4-yl)-8-methyl-6-[2-(oxetan-3-yl)ethynyl]-1H-1,5-naphthyridin-2-one] is 15.2 nM; for `Cc1cc2[nH]c(=O)c(N)c(-c3ccc(F)c4[nH]ncc34)c2nc1C1COC1` [Example 093, 3-Amino-4-(7-fluoro-1H-indazol-4-yl)-7-methyl-6-(oxetan-3-yl)-1H-1,5-naphthyridin-2-one] it is 11.9 nM.
The figure for `Cc1cc2[nH]c(=O)c(N)c(-c3ccc(F)c4[nH]ncc34)c2nc1C1CC1` [Example 18, 3-Amino-6-cyclopropyl-4-(7-fluoro-1H-indazol-4-yl)-7-methyl-1H-1,5-naphthyridin-2-one] is 10.4 nM.
As for `Cc1cc2[nH]c(=O)c(N)c(-c3ccc(F)c4[nH]ncc34)c2nc1N1CCNCC1` [Example 44, 3-Amino-4-(7-fluoro-1H-indazol-4-yl)-7-methyl-6-piperazin-1-yl-1H-1,5-naphthyridin-2-one], the IC50 is under 10 nM.
Next, `COc1cnc2c(-c3ccc(F)c4[nH]ncc34)c(N)c(=O)[nH]c2c1` [Example 6, 3-Amino-4-(7-fluoro-1H-indazol-4-yl)-7-methoxy-1H-1,5-naphthyridin-2-one]: 22.6 nM.
Next, `Cc1cc(C#CC(C)(C)O)nc2c(-c3ccc(F)c4[nH]ncc34)c(N)c(=O)[nH]c12` [Example 148, 3-Amino-4-(7-fluoro-1H-indazol-4-yl)-6-(3-hydroxy-3-methyl-but-1-ynyl)-8-methyl-1H-1,5-naphthyridin-2-one]: under 10 nM; `Nc1c(-c2ccc(F)c3[nH]ncc23)c2ncc(F)cc2[nH]c1=O` [Example 4]: 48.1 nM; `Cc1ncc(OCC(F)F)c2c(-c3ccc(F)c4[nH]ncc34)c(N)c(=O)[nH]c12` [Example 186, 3-Amino-5-(2,2-difluoroethoxy)-4-(7-fluoro-1H-indazol-4-yl)-8-methyl-1H-1,7-naphthyridin-2-one]: 15.8 nM.
As for `Cc1ncc(OC(F)(F)F)c2c(-c3ccc(F)c4[nH]ncc34)c(N)c(=O)[nH]c12` [Example 192, 3-Amino-4-(7-fluoro-1H-indazol-4-yl)-8-methyl-5-(trifluoromethoxy)-1H-1,7-naphthyridin-2-one], the IC50 is under 10 nM.
The figure for `Cc1c(OC(C)C)cnc2c(-c3ccc(F)c4[nH]ncc34)c(N)c(=O)[nH]c12` [Example 138, 3-Amino-4-(7-fluoro-1H-indazol-4-yl)-7-isopropoxy-8-methyl-1H-1,5-naphthyridin-2-one] is 14.2 nM.
The figure for `COC(C)(C)C#Cc1nc2c(-c3ccc(F)c4[nH]ncc34)c(N)c(=O)[nH]c2cc1C` [Example 072, 3-Amino-4-(7-fluoro-1H-indazol-4-yl)-6-(3-methoxy-3-methyl-but-1-ynyl)-7-methyl-1H-1,5-naphthyridin-2-one] is 11.2 nM.
Next, `Cc1cc2[nH]c(=O)c(N)c(-c3ccc(F)c4[nH]ncc34)c2nc1Cl` [Example 3, 3-Amino-6-chloro-4-(7-fluoro-1H-indazol-4-yl)-7-methyl-1H-1,5-naphthyridin-2-one]: under 10 nM; `CSc1cnc2c(-c3ccc(F)c4[nH]ncc34)c(N)c(=O)[nH]c2c1C` [Example 141, 3-Amino-4-(7-fluoro-1H-indazol-4-yl)-8-methyl-7-methylsulfanyl-1H-1,5-naphthyridin-2-one]: 10.4 nM.
For `Cc1cc2[nH]c(=O)c(N)c(-c3ccc(F)c4[nH]ncc34)c2nc1N1CCN(C2CC2)CC1` [Example 29, 3-Amino-6-(4-cyclopropylpiperazin-1-yl)-4-(7-fluoro-1H-indazol-4-yl)-7-methyl-1H-1,5-naphthyridin-2-one], the IC50 is 12 nM.
Next, `Cc1cc2[nH]c(=O)c(N)c(-c3ccc(F)c4[nH]ncc34)c2nc1N1CCN(C)CC1` [Example 22, 3-Amino-4-(7-fluoro-1H-indazol-4-yl)-7-methyl-6-(4-methylpiperazin-1-yl)-1H-1,5-naphthyridin-2-one]: under 10 nM; `Nc1c(-c2ccc(F)c3[nH]ncc23)c2nccc(Cl)c2[nH]c1=O` [Example 50, 3-Amino-8-chloro-4-(7-fluoro-1H-indazol-4-yl)-1H-1,5-naphthyridin-2-one]: under 10 nM; `Cc1c(CC2CC2)cnc2c(-c3ccc(F)c4[nH]ncc34)c(N)c(=O)[nH]c12` [Example 131, 3-Amino-7-(cyclopropylmethyl)-4-(7-fluoro-1H-indazol-4-yl)-8-methyl-1H-1,5-naphthyridin-2-one]: 17.5 nM.
For `Cc1c(C2CC2)nc2c(-c3ccc(F)c4[nH]ncc34)c(N)c(=O)[nH]c2c1C1CC1` [Example 114, 3-Amino-6,8-dicyclopropyl-4-(7-fluoro-1H-indazol-4-yl)-7-methyl-1H-1,5-naphthyridin-2-one], the IC50 worked out at 13.6 nM.
The figure for `Nc1c(-c2ccc(F)c3[nH]ncc23)c2nc(Cl)c(C3CC3)cc2[nH]c1=O` [Example 095, 3-Amino-6-chloro-7-cyclopropyl-4-(7-fluoro-1H-indazol-4-yl)-1H-1,5-naphthyridin-2-one] is under 10 nM.
The figure for `Cc1cc2[nH]c(=O)c(N)c(-c3ccc(F)c4[nH]ncc34)c2nc1OCC1CC1` [Example 47, 3-Amino-6-(cyclopropylmethoxy)-4-(7-fluoro-1H-indazol-4-yl)-7-methyl-1H-1,5-naphthyridin-2-one] is under 10 nM.
Next, `Cc1nc(Cl)cc2c(-c3ccc(F)c4[nH]ncc34)c(N)c(=O)[nH]c12` [Example 175, 3-Amino-6-chloro-4-(7-fluoro-1H-indazol-4-yl)-8-methyl-1H-1,7-naphthyridin-2-one]: under 10 nM; `Cc1ncc(OCC2CC2)c2c(-c3ccc(F)c4[nH]ncc34)c(N)c(=O)[nH]c12` [Example 191, 3-Amino-5-(cyclopropylmethoxy)-4-(7-fluoro-1H-indazol-4-yl)-8-methyl-1H-1,7-naphthyridin-2-one]: 15.7 nM; `Cc1cc2[nH]c(=O)c(N)c(-c3ccc(F)c4[nH]ncc34)c2nc1OC(C)C` [Example 064, 3-Amino-4-(7-fluoro-1H-indazol-4-yl)-6-isopropoxy-7-methyl-1H-1,5-naphthyridin-2-one]: under 10 nM.
For the molecule `COc1c(C)cnc2c(-c3ccc(F)c4[nH]ncc34)c(N)c(=O)[nH]c12` [Example 51, 3-Amino-4-(7-fluoro-1H-indazol-4-yl)-8-methoxy-7-methyl-1H-1,5-naphthyridin-2-one], the IC50 turned out to be 17.9 nM.
The figure for `Cc1c(Br)cnc2c(-c3ccc(F)c4[nH]ncc34)c(N)c(=O)[nH]c12` [Example 115, 3-Amino-7-bromo-4-(7-fluoro-1H-indazol-4-yl)-8-methyl-1H-1,5-naphthyridin-2-one] is under 10 nM; for `Cc1cc2[nH]c(=O)c(N)c(-c3ccc(F)c4[nH]ncc34)c2nc1-c1ccccn1` [Example 155, 3-Amino-4-(7-fluoro-1H-indazol-4-yl)-7-methyl-6-(2-pyridyl)-1H-1,5-naphthyridin-2-one] it is 14.7 nM; for `Nc1c(-c2ccc(F)c3[nH]ncc23)c2ncc(-c3ccc(F)cn3)cc2[nH]c1=O` [Example 14] it is 44.6 nM.
As for `Cc1nc2c(-c3ccc(F)c4[nH]ncc34)c(N)c(=O)[nH]c2cc1Cl` [Example 52, 3-Amino-7-chloro-4-(7-fluoro-1H-indazol-4-yl)-6-methyl-1H-1,5-naphthyridin-2-one], the IC50 was under 10 nM.
Next, `Cc1c(C2CCC2)cnc2c(-c3ccc(F)c4[nH]ncc34)c(N)c(=O)[nH]c12` [Example 119, 3-Amino-7-cyclobutyl-4-(7-fluoro-1H-indazol-4-yl)-8-methyl-1H-1,5-naphthyridin-2-one]: 13 nM; `Cc1c(C2CC2)nc(Cl)c2c(-c3ccc(F)c4[nH]ncc34)c(N)c(=O)[nH]c12` [Example 162, 3-Amino-5-chloro-7-cyclopropyl-4-(7-fluoro-1H-indazol-4-yl)-8-methyl-1H-1,6-naphthyridin-2-one]: under 10 nM.
For `Cc1cc2[nH]c(=O)c(N)c(-c3ccc(F)c4[nH]ncc34)c2nc1OC1CCC1` [Example 46, 3-Amino-6-(cyclobutoxy)-4-(7-fluoro-1H-indazol-4-yl)-7-methyl-1H-1,5-naphthyridin-2-one], the IC50 is 10.6 nM.
The figure for `Cc1ncc(OC2CCC2)c2c(-c3ccc(F)c4[nH]ncc34)c(N)c(=O)[nH]c12` [Example 189, 3-Amino-5-(cyclobutoxy)-4-(7-fluoro-1H-indazol-4-yl)-8-methyl-1H-1,7-naphthyridin-2-one] is 10.6 nM.

For the origin of these results see patent US20260078122A1, “INDAZOLE COMPOUNDS AS PKMYT1 KINASE INHIBITORS” (Hoffmann-La Roche Inc., priority 2023, published 2026).
